Data as given in patent publication US10457709B2, “Antimicrobial peptides, their variants and uses” (priority 2015, dated 2019).
Square brackets hold non-standard residues; d marks the D form. Ends that are not written are not given here. Peptide text beside a SMILES is read from it.

Columns and labels:
[1] = tested on: Escherichia coli clinical strains; format: cell-based; conditions: clinical strains
Procedure: (§1) Minimum inhibition concentrations (MICs) were determined against Escherichia coli (ATCC 25922), Staphylococcus aureus (ATCC 25923), Klebsiella pneumoniae (ATCC 10031) and Pseudomonas aeruginosa (ATCC 27853). Also clinical strains of E. coli, K. pneumoniae, E. cloacae, P. aeruginosa, Serratia marcescens, Proteus mirabilis, S. pneumoniae, Acinetobacter baumannii, A. johnsonii and S. aureus were used for MICs assays. Additionally, clinical strains of yeast including Candida albicans, C. glabrata, C. parapsilosis and C. quillermondiae were used. The susceptibility of these microorganisms to Chain peptides were determined using micro broth dilution assay. Colonies of the respective microorganism from Muller Hinton (MH) agar plates incubated overnight were suspended in MH broth media and final concentration of microorganism was adjusted to 5.0×10^5 cfu/ml. An aliquot of 10 μl of each Chain peptide, or gentamicin, tetracycline as reference antibiotics were added in differing concentrations along with 90 μl of bacterial suspension to 96 well polypropylene plates and incubated at 37° C. for 20 to 24 hours. Concentrations of Chain peptides and reference antibiotics ranged from 0.125 to 128 μg/ml and the MICs were recorded as the lowest concentration with no visual growth of bacteria. Similarly, antifungal MICs were tested in Potato dextrose broth.
(§2) Clinical strains of yeasts including Candida albicans, C. glabrata, C. parapsilosis and C. quillermondiae were also tested with the 12 Chain peptides. The minimum inhibitory concentration (MICs) varied between these peptides and are presented in Tables 4a, 4b, 4c and 5a, 5b, 5c. Peptides Chain 105, 201 and 308 are broad spectrum antimicrobials with MICs between 0.5-32 μg/ml against all the bacteria and yeasts tested, except Serratia marcescens and Proteus mirabilis, against which the MICs were between 64-128 μg/ml. Peptide Chain 306 has narrow spectrum activity against E. coli at 1 μg/ml and for the rest of the bacterial strains at >32 μg/ml (FIG. 10c).

[2] = tested on: Acinetobacter johnsonii clinical strains; format: cell-based; conditions: clinical strain 1; D-form peptides; MH broth-cation adjusted, 0.02% BSA, 0.2% acetic acid
Procedure: as §1, §2

[3] = tested on: all the bacteria and yeasts tested; format: cell-based
Procedure: as §1, §2

[4] = tested on: Klebsiella pneumoniae clinical strains; format: cell-based; conditions: clinical strains
Procedure: as §1, §2

[5] = tested on: Pseudomonas aeruginosa clinical strains; format: cell-based; conditions: clinical strains
Procedure: as §1, §2

[6] = tested on: C. glabrata clinical strains; assay: MIC, clinical yeast strains; format: cell-based, Candida glabrata; parameters: unit: µg/ml
In short: (§3)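 Antifungal testing uses potato dextrose broth; antibacterial testing uses Mueller Hinton broth. Cell density is set to 5.0×10^5 cfu/ml and incubation runs 20–24 h at 37° C. MIC is the lowest concentration, within 0.125–128 μg/ml, at which no growth is visible.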

[7] = tested on: Serratia marcescens clinical strains; format: cell-based; conditions: clinical strains
Procedure: as §1, §2

[8] = tested on: Enterobacter cloacae clinical strains; format: cell-based; conditions: clinical strains
Procedure: as §1, §2

[9] = tested on: Proteus mirabilis clinical strains; format: cell-based; conditions: clinical strains
Procedure: as §1, §2

[10] = tested on: Streptococcus pneumoniae clinical strains; format: cell-based; conditions: clinical strains
Procedure: as §1, §2

[11] = tested on: Staphylococcus aureus clinical strains; format: cell-based; conditions: clinical strains
Procedure: as §1, §2

[12] = tested on: Acinetobacter baumannii clinical strains; format: cell-based; conditions: clinical strains
Procedure: as §1, §2

[13] = tested on: C. quillermondiae clinical strains; assay: MIC, clinical yeast strains; format: cell-based, Candida quillermondiae; parameters: unit: μg/ml; conditions: C. quillermondiae clinical yeast strain 1
In short: as §3

[14] = tested on: Candida albicans clinical strains; assay: MIC, clinical yeast strains; format: cell-based; parameters: unit: μg/ml
In short: as §3

[15] = tested on: C. parapsilosis clinical strains; assay: MIC, clinical yeast strains; format: cell-based, Candida parapsilosis; parameters: unit: µg/ml
In short: as §3

[16] = tested on: Staphylococcus aureus (ATCC 25923); assay: microbe, parasite or virus in culture; format: cell-based; conditions: ATCC 25923
In short: (§4)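 Inocula of 5.0×10^5 cfu/ml in MH broth were exposed to peptide at 0.125 to 128 μg/ml by microdilution.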

[17] = tested on: Pseudomonas aeruginosa (ATCC 27853); assay: microbe, parasite or virus in culture; format: cell-based; conditions: ATCC 27853
In short: as §4

[18] = tested on: Klebsiella pneumoniae (ATCC 10031); assay: microbe, parasite or virus in culture; format: cell-based; conditions: ATCC 10031
In short: as §4

[19] = tested on: Escherichia coli (ATCC 25922); assay: microbe, parasite or virus in culture; format: cell-based; conditions: ATCC 25922
In short: as §4

[20] = tested on: S. aureus; conditions: ATCC 25923
Procedure: as §1

[21] = tested on: E. coli; conditions: ATCC 25922
Procedure: as §1

[22] = tested on: S. aureus; assay: Antibacterial activity analysis of En-MAP1 protein; format: cell-based, Staphylococcus aureus
Procedure: Both folded and unfolded proteins were tested for antibacterial activity against S. aureus by pipetting 10 μg of protein on the S. aureus culture on an LB plate. The activity was also tested in folded and unfolded protein digested with trypsin in 0.01% acetic acid at concentrations of 30 and 60 μg/ml.
The gene En-MAP1 was then cloned into the expression plasmid pET23(b) to analyze whether the antibacterial activity was due to the protein itself. The resulting construct pET23(b)-FosS1A contained the En-MAP1 gene in-frame. When transformed into E. coli expression strain BL21 (DE3) pLyseS and BL21 (DE3) pRARE, a protein of approximately 63 kDa (predicted mass 63.3 kDa) was produced in the cell extracts of induced, but not in the uninduced cultures. The resulting protein includes the amino acid sequence […]- prior to the first amino acid of the protein sequence. The protein was expressed in both strains as inclusion bodies and they were purified and folded in a His-Trap column, resulting in about ˜1 mg of pure folded protein.

CC[C@@H](C)[C@@H](NC(=O)[C@@H](CCSC)NC(=O)[C@@H](C)NC(=O)[C@@H](CCCNC(=N)N)NC(=O)[C@@H](Cc1c[nH]c2ccccc12)NC(=O)[C@@H](CCCCN)NC(=O)[C@H](N)CCCNC(=N)N)C(=O)N[C@H](CCCNC(=N)N)C(=O)N[C@H](CC(C)C)C(=O)N[C@H](Cc1c[nH]cn1)C(=O)N[C@H](C)C(=O)N[C@H](CCCCN)C(=O)N[C@H](Cc1c[nH]c2ccccc12)C(=O)N[C@H](CC(C)C)C(=O)N[C@H](CCCNC(=N)N)C(=O)N[C@H](CCCCN)C(=O)O [Chain105D] (H-[dR][dK][dW][dR][dA][dM][dI][dR][dL][dH][dA][dK][dW][dL][dR][dK]-OH)
1 µg/mL: MIC, Escherichia coli strain 1 [1] | MIC, Escherichia coli strain 3 [1] | MIC, Escherichia coli strain 4 [1] | MIC, Enterobacter cloacae strain 5 [8]
64 µg/mL: MIC, Proteus mirabilis strain 3 [9]
8: Minimum inhibitory concentration ([6]; C. glabrata clinical yeast strain 3) | Minimum inhibitory concentration [13] | Minimum inhibitory concentration ([15]; C. parapsilosis clinical yeast strain 1) | Minimum inhibitory concentration ([15]; C. parapsilosis clinical yeast strain 2) | Minimum inhibitory concentration ([15]; C. parapsilosis clinical yeast strain 3)
128 µg/mL: MIC, Serratia marcescens strain 1 [7] | MIC, Serratia marcescens strain 2 [7] | MIC, Serratia marcescens strain 3 [7] | MIC, Serratia marcescens strain 4 [7] | MIC, Serratia marcescens strain 5 [7]
64 to 128 µg/mL: MICs against Serratia marcescens [7] | MICs against Proteus mirabilis [9]
>128 µg/mL: MIC, Proteus mirabilis strain 1 [9] | MIC, Proteus mirabilis strain 4 [9] | MIC, Proteus mirabilis strain 5 [9]
16: Minimum inhibitory concentration ([6]; C. glabrata clinical yeast strain 1) | Minimum inhibitory concentration ([6]; C. glabrata clinical yeast strain 2) | Minimum inhibitory concentration ([14]; Candida albicans clinical yeast strain 2)
4: Minimum inhibitory concentration ([15]; C. parapsilosis clinical yeast strain 4)
32 µg/mL: MIC, Proteus mirabilis strain 2 [9]
0.5 to 32 µg/mL: MICs against all the bacteria and yeasts tested [3]
2 µg/mL: MIC, Escherichia coli strain 5 [1] | MIC, Klebsiella pneumoniae strain 2 [4] | MIC, Klebsiella pneumoniae strain 5 [4] | MIC, Enterobacter cloacae strain 1 [8] | MIC, Enterobacter cloacae strain 2 [8] | MIC, Enterobacter cloacae strain 3 [8] | MIC, Enterobacter cloacae strain 4 [8] | MIC, Streptococcus pneumoniae strain 2 [10] | MIC, Streptococcus pneumoniae strain 3 [10] | MIC, Streptococcus pneumoniae strain 5 [10] | MIC, Staphylococcus aureus strain 1 [11] | MIC, Staphylococcus aureus strain 2 [11] | MIC, Staphylococcus aureus strain 3 [11] | MIC, Staphylococcus aureus strain 4 [11] | MIC, Staphylococcus aureus strain 5 [11] | MIC, Acinetobacter baumannii strain 4 [12]
4 µg/mL: MIC, Escherichia coli strain 2 [1] | MIC, Acinetobacter johnsonii strain 1 [2] | MIC, Klebsiella pneumoniae strain 1 [4] | MIC, Klebsiella pneumoniae strain 3 [4] | MIC, Klebsiella pneumoniae strain 4 [4] | MIC, Pseudomonas aeruginosa strain 1 [5] | MIC, Pseudomonas aeruginosa strain 2 [5] | MIC, Pseudomonas aeruginosa strain 3 [5] | MIC, Pseudomonas aeruginosa strain 4 [5] | MIC, Pseudomonas aeruginosa strain 5 [5] | MIC, Streptococcus pneumoniae strain 1 [10] | MIC, Streptococcus pneumoniae strain 4 [10] | MIC, Acinetobacter baumannii strain 1 [12] | MIC, Acinetobacter baumannii strain 2 [12] | MIC, Acinetobacter baumannii strain 3 [12] | MIC, Acinetobacter baumannii strain 5 [12]
32: Minimum inhibitory concentration ([6]; C. glabrata clinical yeast strain 4) | Minimum inhibitory concentration ([14]; Candida albicans clinical yeast strain 1) | Minimum inhibitory concentration ([14]; Candida albicans clinical yeast strain 3) | Minimum inhibitory concentration ([14]; Candida albicans clinical yeast strain 4) | Minimum inhibitory concentration ([14]; Candida albicans clinical yeast strain 5)

NRIVQQRTSSR [Chain200]
95 µM: Minimal inhibitory concentration (MIC), S. aureus [20] | Minimal inhibitory concentration (MIC), E. coli [21]
>128 µg/mL: Minimum inhibitory concentration, Staphylococcus aureus (ATCC 25923) [16] | Minimum inhibitory concentration, Pseudomonas aeruginosa (ATCC 27853) [17] | Minimum inhibitory concentration, Klebsiella pneumoniae (ATCC 10031) [18] | Minimum inhibitory concentration, Escherichia coli (ATCC 25922) [19]

B1: En-MAP1: protein of 549 amino acids from an endophyte of Empetrum nigrum, GenBank accession number KC466596 (protein, listed as Empetrum nigrum)
chain: MRLVAHPVPDAPLYALMIKACSMGIPQPNDNLWKPRNPLLAKEEKTSKRGRTAPDTERALDLFREMTLRYNIRPTAEVYTAIIAACVKRDDMYDKGFGLFKKMVELERNRMSSEGHDSTSFAPTRATYNALLRGCARNKDLLRARWILAEMLRTAQAKWQEFMEKSKKGEEGVQEWELLEVEEMRPDTNTMAFLFYTYASHTTSSKAVPETEGKKELEGKAEERASEVTSVSPVSEPPEPMDESKLVYSLPTSSQAILREVTSLLDRIKSDQGQQSNLLSSVQINSKLLNSYIAVLSAHCRSSQVVERISEVVVGTKENPKSLFEETGTSVNGYTCFTVIDACGMMEHSPDTYHLACEMWQRWLSLVENATFHRENPLKAKEIGLDSRTISDCWSAMIRLHAKYNQVDEAMKLVHEFARLYPPASLFNSLTFEPSSTSSSSLSPRKGVQEISPLFSSTSLTHSIRGRDISRIQNTMSQDPTLQFRAVQILHLRLVELETRPKDLAYLSWLLKSYEHQLQPKRPKSLQGDLFTSRQAAYNRIVQQRTSSR
no activity was observed: Antibacterial activity against S. aureus ([22]; expressed, folded protein)
antibacterial activity was observed: Antibacterial activity against S. aureus after trypsin digestion ([22]; folded full protein digested with trypsin, data not shown)
No activity was detected: Antibacterial activity against S. aureus after trypsin digestion ([22]; trypsin digest of the unfolded protein)
